Measured values reported in patent US20250312292A1, “PHARMACEUTICAL COMPOSITION FOR USE IN THERAPEUTIC OR PROPHYLACTIC METHOD FOR KIDNEY INJURY, COMBINED MEDICINE CONTAINING SAID PHARMACEUTICAL COMPOSITION, AND CCBL1 INHIBITOR” (FUJITA ACADEMY, priority 2022, published 2025).
Where two headings read alike, the source gives them in different places.

What was measured:
recombinant CCBL1 (KAT1) = molecular target: T1, recombinant CCBL1 (KAT1) (Homo sapiens, UniProt Q16773); experiment: Screening of KAT1 (CCBL1) inhibitory activity, L-kynurenine fluorescence assay; assay type: biochemical; details: for inhibition at 10 µM: 10 μM of the compound, 1 mM L-kynurenine, room temperature 2 hours; for CCBL1 (KAT1) inhibitory activity, in words: screening result
T1 construct: made in house; host or cells: Sf9 insect cells (baculovirus)
T1 sequence (Q16773 1-422): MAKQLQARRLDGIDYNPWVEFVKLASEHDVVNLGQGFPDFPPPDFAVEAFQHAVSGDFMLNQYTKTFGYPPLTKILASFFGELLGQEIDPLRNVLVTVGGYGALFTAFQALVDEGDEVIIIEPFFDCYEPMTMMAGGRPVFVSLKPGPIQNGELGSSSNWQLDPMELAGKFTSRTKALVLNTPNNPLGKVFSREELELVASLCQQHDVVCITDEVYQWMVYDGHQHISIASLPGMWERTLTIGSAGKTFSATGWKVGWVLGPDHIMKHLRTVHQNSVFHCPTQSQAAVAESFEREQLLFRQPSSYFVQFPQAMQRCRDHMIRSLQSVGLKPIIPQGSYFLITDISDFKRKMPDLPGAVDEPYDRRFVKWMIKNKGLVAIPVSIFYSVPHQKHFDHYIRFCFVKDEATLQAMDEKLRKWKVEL
Experimental: (§1) Sf9 cells infected with baculovirus containing human CCBL1 gene were centrifuged and thereby pelletized and dissolved in 50 mM phosphate buffer solution (pH 8.0) containing 300 mM NaCl and 10 mM imidazole. After ultrasonic treatment, the cell lysate was centrifuged at 10,000×g at 4° C. for 20 minutes, and recombinant CCBL1 in the supernatant was added to a pre-equalized Ni-NTA resin (QIAGEN). An enzyme/resin composite was transferred to a column and washed with a buffer solution containing 300 mM NaCl and 20 mM imidazole in 50 mM phosphate buffer solution (pH 8.0), and recombinant CCBL1 was eluted with a buffer solution (pH 8.0) containing 300 mM NaCl, 250 mM imidazole, and 50 mM phosphate. The enzyme fraction was pooled based on the purity determined by using SDS-PAGE and desalted by using a PD-10 column (GE Healthcare, U.K.)
The CCBL1 inhibitory compound was obtained by screening KAT1 inhibitory activity of compounds included in a compound library (The Spectrum Collection) provided by Center for Supporting Drug Discovery and Life Science Research in Graduate School of Pharmaceutical Sciences, Osaka University. Here, 10 ng/μl recombinant CCBL, 1 mM L-kynurenine, 1 mM sodium pyruvate, 100 μM PLP, and 0.005% Tween 20 mixture solution contained in 150 mM of 2-amino-2-methyl-1-propanol buffer solution were added to a 384-well plate containing 10 μM of the compound and then incubated at room temperature for 2 hours. Subsequently, 20 μL of 300 mM zinc acetate solution was added thereto, and the fluorescent intensities at an excitation wavelength 340 nm and a fluorescent wavelength 460 nm were measured by Infinite M1000 plate reader (TECAN). The Control without containing the compound was defined as reaction 100%, the Background without containing any enzyme was defined as reaction 0%, and the inhibitory activity of the compound (Sample) was calculated based on the following equation.

[1] = test system: cisplatin-induced kidney injury model mice; experiment: Cisplatin-induced kidney injury model mouse; details: for BUN level in serum / Cre level in serum: compound 25, 50, 100 mg/kg i.p. 30 minutes before cisplatin 20 mg/kg, third day
Experimental: (§5) To create cisplatin-induced kidney injury model mice, cisplatin (20 mg/kg) was administered once by intraperitoneal administration to male C57BL/6J mice with the body weight of 20 to 25 g (Japan SLC). To examine the kidney protection effect (prophylactic effect) of the compounds expressed by formulae (2) and (3) (hereafter, simply referred to as “compound”) on a cisplatin-induced kidney injury, the compound was intraperitoneally administered with doses of 0, 25, 50, and 100 mg/kg 30 minutes before the cisplatin injection. The mice were sacrificed on the third day after the cisplatin injection. Samples of the blood and the kidneys were taken and preserved at −80° C. for further analysis.
(§6) The levels of creatinine (Cre) and blood urea nitrogen (BUN) in serum were measured by using a fully automated blood biochemistry analyzer (BioMajesty JCA-BM9130) in accordance with a manufacturer-instructed method.

recombinant human CCBL1 = molecular target: T2, recombinant human CCBL1 (Homo sapiens, UniProt Q16773); experiment: Inhibition of CCBL1 beta-elimination activity by compound; assay type: biochemical; details: recombinant human CCBL1, compound at different concentrations
T2 construct: made in house; host or cells: Sf9 insect cells (baculovirus)
T2 sequence (Q16773 1-422): T1 sequence (Q16773 1-422)
Experimental: as §1
The beta-elimination activity of CCBL1 was measured in accordance with a method described in “Arun Kumar Selvam et al., “A Novel Assay Method to Determine the—Elimination of Se-Methylselenocysteine to Monomethylselenol by Kynurenine Amino transferase 1” Antioxidants 2020, 9, 139; doi: 10. 3390/antiox 9020139″. […] Subsequently, 70 μL of the assay mixture was incubated at 37° C. for 10 minutes, 130 μL of 1M NaOH was added thereto, and the increase in the absorbance at 520 nm was measured by using a spectrophotometer (Nivo Multiplate Microplate Reader, PerkinElmer). […]

[2] = test system: CCBL1 overexpressed LLC/PK1 cells; experiment: Cell viability assay, cisplatin-induced renal tubular cell death; assay type: cell-based; details: 24 hours
Experimental: (§2) LLC/PK1 (pig kidney epithelium), LLC (Lewis lung cancer), and MDA-MB-231 (human breast cancer) cells were obtained from JCRB cell bank (Japan). The LLC/PK1 cells were transfected by a human CCBL1 expression vector, CCBL1 stable overexpression cells were cloned into CCBL1 overexpressed LLC/PK1 cells, which were used for further experiments. The CCBL1 overexpressed LLC/PK1 cells were proliferated in 199/EBSS culture medium (10% FBS, 1% penicillin/streptomycin, and 400 μg/ml of G418), and LLC and MDA-MB-231 cells were proliferated at 37° C. under humidified atmosphere of 5% CO2 in DMEM culture medium (10% FBS and 1% penicillin/streptomycin).
(§3) A cell viability assay kit was used to measure the cell viability. […] The absorbance at 490 nm was measured by using a microplate reader (Molecular Devices, USA). The cell viability was calculated as a value of the absorbance of treated cells relative to the absorbance of untreated cells.
(§4) To examine whether or not the compound X prevents cisplatin-induced renal uriniferous tubular cell death, CCBL1 overexpressed LLC/PK1 cells were treated with different concentrations of cisplatin and the compound X for 24 hours, and the cell viability was evaluated by cell proliferation assay. The expression amount of human CCBL1 in LLC-PK1 cells was determined by immunoblotting. […]

[3] = test system: human breast cancer cell lines (MDA-MB-231 cells); experiment: Cell viability assay, cisplatin-induced tumor cell death; assay type: cell-based; details: with cisplatin, 24 hours
Experimental: as §2, §3, §4

[4] = test system: Lewis lung cancer cell lines (LLC cells); experiment: as above; assay type: cell-based; details: with cisplatin, 24 hours
Experimental: as §2, §3, §4

[5] = test system: cisplatin-induced kidney injury model mice; details: mouse, in vivo
Experimental: as §5, §6

[6] = test system: tumor allograft model mice; experiment: Tumor allograft model mouse (Lewis lung cancer cells); assay type: in vivo
Experimental: Tumors were measured by using vernier calipers, and tumor volumes were calculated as a product of length by width by width. After the tumor reached a certain size, the compound (100 mg/kg) was intraperitoneally administered 30 minutes before the intraperitoneal administration of 20 mg/kg of cisplatin.
Renal tubular damage was scored as follows.

[7] = compound and cisplatin versus cisplatin alone
[8] = both cisplatin and compound administered
[9] = compound plus cisplatin, tumor-bearing mice
[10] = cisplatin 20 mg/kg i.p. alone, tumor-bearing mice

COc1cc(O)c(C(C)=O)c(O)c1 [4-O-METHYLPHLORACETOPHENONE, 4-O-methylphloracetophenone, reference compound]
inhibition at 10 µM (recombinant CCBL1 (KAT1)): 5.6%
CCBL1 (KAT1) inhibitory activity, in words (recombinant CCBL1 (KAT1)): exhibits little CCBL1 inhibitory activity

CCC(=O)c1c(O)cc(O)cc1O [FLOPROPIONE, 1-(2,4,6-trihydroxyphenyl) propan-1-one]
inhibition at 10 µM (recombinant CCBL1 (KAT1)): 71.9%
BUN level in serum [1]: reduced Cre and BUN in a dose dependent manner
Cre level in serum [1]: reduced Cre and BUN in a dose dependent manner
BUN level in serum, compound administered alone ([1]; compound alone, no cisplatin): no change was found in the Cre and BUN levels
Cre level in serum, compound administered alone ([1]; compound alone, no cisplatin): no change was found in the Cre and BUN levels
inhibitory activity to CCBL1 β elimination activity (recombinant human CCBL1): inhibited by flopropione in a concentration dependent manner

O=C(CCc1ccc(O)cc1)c1c(O)cc(O)cc1O [PHLORETIN, 3-(4-hydroxyphenyl)-1-(2,4,6-trihydroxyphenyl) propan-1-one]
inhibition at 10 µM (recombinant CCBL1 (KAT1)): 83%
CCBL1 (KAT1) inhibitory activity, in words (recombinant CCBL1 (KAT1)): has a CCBL1 inhibitory function

CC(=O)c1c(O)cc(O)cc1O [compound X, 2,4,6-trihydroxyacetophenone]
inhibition at 10 µM (recombinant CCBL1 (KAT1)): 88.6%
relative kidney weight ([1]; both cisplatin (20 mg/kg i.p.) and compound administered): did not increase the relative kidney weight
BUN level in serum [1]: reduces the Cre and BUN levels in a dose dependent manner
Cre level in serum [1]: reduces the Cre and BUN levels in a dose dependent manner
BAX level in kidney (immunoblotting) [1, 7]: decreased
Cleaved Caspase-3 level in kidney (immunoblotting) [1, 7]: decreased
cisplatin-induced renal tubular cell death (histopathological observation, PAS stain) ([1]; compound plus cisplatin): suppresses the cisplatin-induced renal tubular cell death in a dose dependent manner
tubular injury score ([1]; group of cisplatin and compound versus only cisplatin): lower tubular injury scores than the group of only cisplatin
inhibitory activity to CCBL1 β elimination activity (recombinant human CCBL1): inhibited by the compound X in a concentration dependent manner
LLC-PK1 cell death (cell viability) without cisplatin ([2]; cisplatin 0 μM): did not affect the LLC-PK1 cell death
cisplatin-induced renal tubular cell death (cell viability) ([2]; cisplatin 50 μM): prevented the cisplatin-induced renal tubular cell death in a dose dependent manner
cisplatin-induced tumor cell death (cell viability) [3]: did not affect the cisplatin-induced tumor cell death
cisplatin-induced tumor cell death (cell viability) [4]: did not affect the cisplatin-induced tumor cell death
BUN level in serum, compound administered alone [5]: no change in the Cre and BUN levels was found
Cre level in serum, compound administered alone [5]: no change in the Cre and BUN levels was found
injury of renal uriniferous tubular cells, compound alone (histopathology) [5]: does not injure renal uriniferous tubular cells
body weight change [6, 8]: the body weight changed little
relative kidney weight [6, 8]: the relative kidney weight decreased
tumor size reduction by cisplatin when compound is co-administered ([6]; compound 100 mg/kg i.p. 30 minutes before cisplatin 20 mg/kg): this effect did not change
renal uriniferous tubular damage score ([6]; compound plus cisplatin versus cisplatin alone): reduces the renal uriniferous tubular damage score
BUN concentration in serum [6, 9]: reduced the increase in the cisplatin-induced BUN and Cre in a dose dependent manner
Cre concentration in serum [6, 9]: reduced the increase in the cisplatin-induced BUN and Cre in a dose dependent manner

N.N.[Cl][Pt][Cl] [cisplatin]
BUN level in serum, cisplatin alone ([1]; cisplatin 20 mg/kg i.p. alone): increased the Cre and BUN levels
Cre level in serum, cisplatin alone ([1]; cisplatin 20 mg/kg i.p. alone): increased the Cre and BUN levels
body weight, cisplatin alone ([1]; cisplatin 20 mg/kg i.p. alone): reduced the body weight
relative kidney weight, cisplatin alone ([1]; cisplatin 20 mg/kg i.p. alone): increased the relative kidney weight
tumor size, cisplatin ([6]; cisplatin 20 mg/kg i.p.): reduced the tumor size
body weight, cisplatin alone [6, 10]: reduced the body weight
relative kidney weight, cisplatin alone [6, 10]: increased the relative kidney weight
